Assay results published in patent US11203777B2, “Method of preparing sterilized compositions for stabilization of extracellular nucleic acids” (Qiagen GmbH, priority 2015, dated 2021).
Residues, ends and D or L forms follow the SMILES beside them. *: point of attachment. Cbz = O=C(OCc1ccccc1)*; CH2F = FC*

Tests used:
[1] = HPLC quantification of caspase inhibitor in stabilization reagent before and after gamma irradiation; assay type: physicochemical; conditions: for [Casp] (Pre-Irr) / [Casp] (Post-Irr): 50 ml bulk; for [Casp] (Post-Irr): 25 kGy
Procedure: Caspase inhibitor (Q-VD-OPh) was dissolved and diluted in DMSO for generation of a standard curve. Concentrations of 7.5, 15, 30 and 60 μg/ml were used to generate the standard curve.
Stabilization reagents containing a mixture of caspase inhibitor, EDTA, DMPA and PEG were tested before and after gamma irradiation. Unique peaks for caspase inhibitor were identified and compared to the standard curve for total quantification of caspase inhibitor. The concentration of caspase inhibitor was determined before and after irradiation, and these concentrations were compared for relative quantification.
For the production of PAXgene Blood ccfDNA Alpha blood collection tubes (Alpha BCT), BD standard tubes for 10 ml blood draw were filled with 1.3-1.7 ml ccfDNA stabilization reagent. The exemplary stabilization reagents tested comprised a mixture of caspase inhibitor (Q-VD-OPh), K2EDTA, DMPA, PEG300 and PEG10000, according to PCT/EP2015/055699. A vacuum was applied to the tubes to allow for a 10.25 ml blood draw. Tubes were sterilized by gamma irradiation using Cobalt-60 as energetic gamma ray source in a range of 5 to 35 kGy. […]
Stabilization reagents were produced with or without the addition of radical scavengers and sterilized in bulk by gamma irradiation. The caspase inhibitor concentration was measured by HPLC before and after irradiation to determine the effect of scavenger addition on caspase inhibitor degradation during sterilization by gamma irradiation.
Stabilization reagents according to PCT/EP2015/055699 were produced with or without the addition of radical scavengers in different concentrations and with different concentrations of caspase inhibitor. PAXgene Blood ccfDNA Alpha tubes were produced by filling 1.7 ml of the respective stabilization reagent into a standard Vacutainer. Tubes were sterilized by gamma irradiation with different energy levels. The caspase inhibitor concentration was measured by HPLC before and after irradiation (see Table 7 below).

[2] = tested on: ccfDNA level in whole blood (66 bp and 500 bp fragments of the 18S rDNA gene); experiment: ccfDNA stabilization in stored whole blood, real time PCR of 18S rDNA fragments in plasma; conditions: for copy numbers of the 500 bp fragment of the 18S rDNA gene: caspase inhibitor approx. 5 μM in stabilized blood, 6 donors, FIG. 10; for change of copy numbers (x fold change) of 66 bp and 500 bp fragments of the 18S rDNA gene: 6 days at room temperature, FIG. 3
Procedure: Blood was drawn into Alpha BCT for stabilization of the ccfDNA level. 10 ml spray dried EDTA tubes (BD) with 1.8 mg K2EDTA per ml of whole blood served as non-stabilized negative control. Blood and reagents were mixed by inverting the tube ten times. Stabilized and non-stabilized blood samples were stored at room temperature standing in an upright position.
Whole blood samples were centrifuged at ambient temperature for 15 min at 1.900×g. The clear plasma fraction was transferred into a fresh centrifuge tube. In a second round, plasma samples were centrifuged for 10 min at 16.000×g in case of non-stabilized EDTA-blood or for 10 min at 1.900×g in case of stabilized Alpha BCT blood. The supernatant was transferred into a new tube and used either directly for the purification of ccfDNA or stored at −20° C. until use.
DNA from plasma was isolated with the QIAamp circulating nucleic acid kit (QIAGEN GmbH), using the protocol for purification of circulating nucleic acids from 1 ml, 2 ml, or 3 ml serum or plasma. If not stated otherwise, 2 ml of plasma was mixed with proteinase K and lysis buffer ACL, incubated for 30 min at 60° C., mixed with buffer ACB, bound on QIAamp Mini columns with the use of a QIAvac 24 Plus vacuum manifold, washed and eluted with 60 μl elution buffer AVE, according to the manufactures recommendations.
ccfDNA from 2 ml plasma was isolated with a preliminary version of the QIAsymphony Circulating DNA protocol and kit (QIAGEN). If not stated otherwise, the QIAsymphony robot mixed 2 ml of plasma with proteinase K, binding buffer and magnetic beads. Beads with bound DNA were washed three times and DNA was eluted using 60 μl elution buffer.
To measure the amount of ccfDNA, a real time PCR assay on Abi Prism HT7900 (Life Technologies) was performed with 3 μl of eluate. In a 20 μl assay volume using QuantiTect Multiplex PCR Kit reagents (QIAGEN GmbH), two fragments of the human 18S rDNA gene were amplified in a multiplex PCR. Total quantification was achieved by comparison with a standard curve generated with human genomic DNA diluted from 3000 to 0.3 genome equivalents (1 genome equivalent equates to around 6.6 μg of human genomic DNA).
Quantification of the 66 bp fragment was used to reflect the total amount of 18S rDNA copies in the plasma. Quantification of the 500 bp was used to determine the amount of 18S rDNA copies which derived from apoptotic or mechanically lysed leukocytes from whole blood. […] The increase of copy numbers from the 500 bp fragment between day 0 and 3 or 6 days storage, was used as a measurement of stability efficiency.
PAXgene Blood ccfDNA Alpha tubes were produced and sterilized by gamma irradiation with different energy levels. Samples of 10 ml whole blood from eight donors were collected in 10 ml spray dry K2EDTA tubes (non-stabilized controls) and in PAXgene Blood ccfDNA Alpha tubes. Plasma was generated from 5 ml of stabilized or non-stabilized blood samples directly after blood draw. Residual blood was stored for additional 6 days at room temperature before plasma generation. ccfDNA was purified manually from 2 ml plasma, copy numbers of 18S rDNA gene were determined in triplicates by real time PCR.
Samples of 10 ml whole blood from eight donors were collected in 10 ml spray dry K2EDTA tubes. Directly after blood draw, non-stabilized blood samples were stabilized by addition of 1.7 ml of a ccfDNA stabilization reagent according to PCT/EP2015/055699 with or without addition of the different compounds tested for their impact on extracellular nucleic acid stabilization.
Plasma was generated from 5 ml of stabilized blood samples directly after the blood draw (day 0).

[3] = scavenger 1 mg/ml, casp-inh. 5 μM, 0 kGy
[4] = scavenger 1 mg/ml, casp-inh. 5 μM, 20 kGy
[5] = scavenger 1 mg/ml, casp-inh. 5 μM, 30 kGy
[6] = scavenger 5-10 mg/ml, 0.5-1% (w/v)
[7] = scavenger 0.1-1 mg/ml, 0.01-0.1% (w/v)

In the case of O=C1O[C@H]([C@@H](O)CO)C(O)=C1O [Ascorbic acid], the “HPLC Testing [C-Inh]” value [1, 3] is reported as 18.2 µg/mL, the “HPLC Testing [C-Inh]” value [1, 4] is reported as 7.0 µg/mL and the “HPLC Testing [C-Inh]” value [1, 5] is reported as 5.0 µg/mL. For the same molecule, the “HPLC Testing [C-Inh]” value ([1]; scavenger 2 mg/ml, casp-inh. 5 μM, 10 kGy) was 15.2 µg/mL, the “HPLC Testing [C-Inh]” value ([1]; scavenger 2 mg/ml, casp-inh. 5 μM, 20 kGy) was 10.7 µg/mL and the “HPLC Testing [C-Inh]” value ([1]; scavenger 2 mg/ml, casp-inh. 5 μM, 30 kGy) was 9.5 µg/mL. For the same molecule, the “[Casp] (Pre-Irr)” value ([1]; scavenger 5 mg/ml-27.5 mM) was 16.522 µg/mL, the “[Casp] (Post-Irr)” value ([1]; scavenger 5 mg/ml-27.5 mM) was 12.5986 µg/mL and the “HPLC Testing [C-Inh]” value ([1]; scavenger 5 mg/ml, casp-inh. 5 μM, 0 kGy) was 19.2 µg/mL. The “HPLC Testing [C-Inh]” value ([1]; scavenger 5 mg/ml, casp-inh. 5 μM, 10 kGy) was 16.0 µg/mL, the “HPLC Testing [C-Inh]” value ([1]; scavenger 5 mg/ml, casp-inh. 5 μM, 20 kGy) was 12.8 µg/mL and the “HPLC Testing [C-Inh]” value ([1]; scavenger 5 mg/ml, casp-inh. 5 μM, 30 kGy) was 12.1 µg/mL. For the same molecule, the “HPLC Testing [C-Inh]” value ([1]; scavenger 5 mg/ml, casp-inh. 10 μM, 0 kGy) was 37.7 µg/mL, the “HPLC Testing [C-Inh]” value ([1]; scavenger 5 mg/ml, casp-inh. 10 μM, 10 kGy) was 31.2 µg/mL and the “HPLC Testing [C-Inh]” value ([1]; scavenger 5 mg/ml, casp-inh. 10 μM, 20 kGy) was 26.8 µg/mL. The “HPLC Testing [C-Inh]” value ([1]; scavenger 5 mg/ml, casp-inh. 10 μM, 30 kGy) was 23.7 µg/mL, the “HPLC Testing [C-Inh]” value ([1]; scavenger 5 mg/ml, casp-inh. 15 μM, 0 kGy) was 55.5 µg/mL and the “HPLC Testing [C-Inh]” value ([1]; scavenger 5 mg/ml, casp-inh. 15 μM, 10 kGy) was 46.4 µg/mL. The “HPLC Testing [C-Inh]” value ([1]; scavenger 5 mg/ml, casp-inh. 15 μM, 20 kGy) was 40.6 µg/mL, the “HPLC Testing [C-Inh]” value ([1]; scavenger 5 mg/ml, casp-inh. 15 μM, 30 kGy) was 35.5 µg/mL and the “HPLC Testing [C-Inh]” value ([1]; scavenger 10 mg/ml, casp-inh. 5 μM, 0 kGy) was 18.4 µg/mL. For the same molecule, the “HPLC Testing [C-Inh]” value ([1]; scavenger 10 mg/ml, casp-inh. 5 μM, 10 kGy) was 16.0 µg/mL, the “HPLC Testing [C-Inh]” value ([1]; scavenger 10 mg/ml, casp-inh. 5 μM, 20 kGy) was 13.5 µg/mL and the “Protection against gamma irradiation” value [1, 6] was “high”. For the same molecule, the “average total copy numbers of the 500 bp fragment of the 18S rDNA gene” value ([2]; scavenger 20 mg/ml, directly after blood collection, FIG. 5) was “reduced ccfDNA absolute copy numbers” and the “Effect on ccfDNA stability” value [2, 6] was “neutral”.

With COC(=O)CC(NC(=O)OC(C)(C)C)C(=O)CF [Boc-D-(OMe)-FMK] the “copy numbers of the 500 bp fragment of the 18S rDNA gene” value ([2]; 5 days at room temperature) was “comparable to the fragment numbers in blood stabilized with the PAXgene Blood ccfDNA Tube”.

In the case of O=C(O)c1cc(O)c(O)c(O)c1 [Gallic acid], the “[Casp] (Pre-Irr)” value ([1]; scavenger 500 μg/ml-2.9 mM) is reported as 16.633 µg/mL, the “[Casp] (Post-Irr)” value ([1]; scavenger 500 μg/ml-2.9 mM) is reported as 0.5888 µg/mL and the “Protection against gamma irradiation” value ([1]; scavenger 0.5-2 mg/ml, 0.2% (w/v)) is reported as “none”. For the same molecule, the “change of copy numbers (x fold change) of 66 bp and 500 bp fragments of the 18S rDNA gene” value ([2]; scavenger 2 mg/ml in non-irradiated reagent, 8 donors) was “lead to an increased release of DNA”.

In the case of N[C@@H](CCC(=O)N[C@@H](CS)C(=O)NCC(=O)O)C(=O)O [Glutathione], the “HPLC Testing [C-Inh]” value ([1]; scavenger 0.05 mg/ml, casp-inh. 5 μM, 0 kGy) is reported as 19.1 µg/mL, the “HPLC Testing [C-Inh]” value ([1]; scavenger 0.05 mg/ml, casp-inh. 5 μM, 10 kGy) is reported as 14.1 µg/mL and the “HPLC Testing [C-Inh]” value ([1]; scavenger 0.05 mg/ml, casp-inh. 5 μM, 20 kGy) is reported as 8.9 µg/mL. The “HPLC Testing [C-Inh]” value ([1]; scavenger 0.05 mg/ml, casp-inh. 5 μM, 30 kGy) was 6.6 µg/mL, the “[Casp] (Pre-Irr)” value ([1]; scavenger 100 μg/ml-320 μM) was 16.454 µg/mL and the “[Casp] (Post-Irr)” value ([1]; scavenger 100 μg/ml-320 μM) was 10.4422 µg/mL. For the same molecule, the “HPLC Testing [C-Inh]” value ([1]; scavenger 0.1 mg/ml, casp-inh. 5 μM, 0 kGy) was 18.8 µg/mL, the “HPLC Testing [C-Inh]” value ([1]; scavenger 0.1 mg/ml, casp-inh. 5 μM, 10 kGy) was 14.3 µg/mL and the “HPLC Testing [C-Inh]” value ([1]; scavenger 0.1 mg/ml, casp-inh. 5 μM, 20 kGy) was 9.9 µg/mL. The “HPLC Testing [C-Inh]” value ([1]; scavenger 0.1 mg/ml, casp-inh. 5 μM, 30 kGy) was 7.5 µg/mL, the “HPLC Testing [C-Inh]” value ([1]; scavenger 0.1 mg/ml, casp-inh. 10 μM, 0 kGy) was 37.9 µg/mL and the “HPLC Testing [C-Inh]” value ([1]; scavenger 0.1 mg/ml, casp-inh. 10 μM, 10 kGy) was 29.4 µg/mL. The “HPLC Testing [C-Inh]” value ([1]; scavenger 0.1 mg/ml, casp-inh. 10 μM, 20 kGy) was 23.3 µg/mL, the “HPLC Testing [C-Inh]” value ([1]; scavenger 0.1 mg/ml, casp-inh. 10 μM, 30 kGy) was 17.7 µg/mL and the “HPLC Testing [C-Inh]” value ([1]; scavenger 0.1 mg/ml, casp-inh. 15 μM, 0 kGy) was 55.5 µg/mL. The “HPLC Testing [C-Inh]” value ([1]; scavenger 0.1 mg/ml, casp-inh. 15 μM, 10 kGy) was 42.7 µg/mL, the “HPLC Testing [C-Inh]” value ([1]; scavenger 0.1 mg/ml, casp-inh. 15 μM, 20 kGy) was 33.2 µg/mL and the “HPLC Testing [C-Inh]” value ([1]; scavenger 0.1 mg/ml, casp-inh. 15 μM, 30 kGy) was 25.0 µg/mL. The “HPLC Testing [C-Inh]” value ([1]; scavenger 0.2 mg/ml, casp-inh. 5 μM, 0 kGy) was 19.9 µg/mL, the “HPLC Testing [C-Inh]” value ([1]; scavenger 0.2 mg/ml, casp-inh. 5 μM, 20 kGy) was 11.9 µg/mL and the “HPLC Testing [C-Inh]” value ([1]; scavenger 0.2 mg/ml, casp-inh. 5 μM, 30 kGy) was 10.2 µg/mL. The “HPLC Testing [C-Inh]” value ([1]; scavenger 0.5 mg/ml, casp-inh. 5 μM, 10 kGy) was 15.4 µg/mL, the “HPLC Testing [C-Inh]” value ([1]; scavenger 0.5 mg/ml, casp-inh. 5 μM, 20 kGy) was 12.3 µg/mL and the “HPLC Testing [C-Inh]” value ([1]; scavenger 0.5 mg/ml, casp-inh. 5 μM, 30 kGy) was 11.1 µg/mL. For the same molecule, the “HPLC Testing [C-Inh]” value [1, 3] was 20.0 µg/mL, the “HPLC Testing [C-Inh]” value [1, 4] was 13.8 µg/mL and the “HPLC Testing [C-Inh]” value [1, 5] was 12.6 µg/mL. The “Protection against gamma irradiation” value [1, 7] was “high” and the “Effect on ccfDNA stability” value [2, 7] was “neutral”.

For CC(C)O [Isopropanol], the “Protection against gamma irradiation” value ([1]; scavenger 1% (v/v)) was “none”, the “[Casp] (Pre-Irr)” value ([1]; scavenger 1%) was 16.572 µg/mL and the “[Casp] (Post-Irr)” value ([1]; scavenger 1%) was 0.8517 µg/mL.

With OC[C@@H](O)[C@@H](O)[C@H](O)[C@H](O)CO [Mannitol] the “Protection against gamma irradiation” value ([1]; scavenger 5 mg/ml, 0.5% (w/v)) was “none”, the “[Casp] (Pre-Irr)” value ([1]; scavenger 0.5%) was 16.554 µg/mL and the “[Casp] (Post-Irr)” value ([1]; scavenger 0.5%) was 1.0667 µg/mL.

For O=C(OC[C@H]1O[C@@H](OC(=O)c2cc(O)c(O)c(OC(=O)c3cc(O)c(O)c(O)c3)c2)[C@H](OC(=O)c2cc(O)c(O)c(OC(=O)c3cc(O)c(O)c(O)c3)c2)[C@@H](OC(=O)c2cc(O)c(O)c(OC(=O)c3cc(O)c(O)c(O)c3)c2)[C@@H]1OC(=O)c1cc(O)c(O)c(OC(=O)c2cc(O)c(O)c(O)c2)c1)c1cc(O)c(O)c(OC(=O)c2cc(O)c(O)c(O)c2)c1 [Tannic acid], the “change of copy numbers (x fold change) of 66 bp and 500 bp fragments of the 18S rDNA gene” value ([2]; scavenger 1 mg/ml in non-irradiated reagent, 8 donors) was “lead to an increased release of DNA”.

In the case of Cc1c(C)c2c(c(C)c1O)CCC(C)(C(=O)O)O2 (stereo not shown) [Trolox, 6-hydroxy-2,5,7,8-tetramethylchromane-2-carboxylic acid], the “[Casp] (Pre-Irr)” value ([1]; scavenger 4 mM) is reported as 16.534 µg/mL, the “[Casp] (Post-Irr)” value ([1]; scavenger 4 mM) is reported as 3.0195 µg/mL and the “[Casp] (Pre-Irr)” value ([1]; scavenger 5 mM in DMSO) is reported as 16.649 µg/mL. The “[Casp] (Post-Irr)” value ([1]; scavenger 5 mM in DMSO) was 3.3548 µg/mL.

In the case of CCCCCCCC/C=C\CCCCCCCC(=O)OCCOCC(OCCO)C1OCC(OCCO)C1OCCO (stereo not shown) [Tween-80], the “[Casp] (Pre-Irr)” value ([1]; scavenger 0.6 mM) is reported as 16.550 µg/mL, the “[Casp] (Post-Irr)” value ([1]; scavenger 0.6 mM) is reported as 0.8856 µg/mL and the “Protection against gamma irradiation” value ([1]; scavenger 0.74 mg/ml, 0.07% (v/v)) is reported as “none”.

For COC(=O)C[C@H](NC(=O)[C@H](C)NC(=O)[C@@H](NC(=O)OCc1ccccc1)C(C)C)C(=O)CF [Z-VAD (OMe)-FMK, Z-Val-Ala-Asp(OMe)-FMK] (Cbz-Val-Ala-Asp(OMe)-CH2F), the “copy numbers of the 500 bp fragment of the 18S rDNA gene” value ([2]; 5 days at room temperature) was “comparable to the fragment numbers in blood stabilized with the PAXgene Blood ccfDNA Tube”.

For Cc1ncc(CO)c(CO)c1O [vitamin B6, pyridoxine], the “number of 500 bp fragments of the 18S rDNA gene compared to the stabilization reagent without scavenger (irradiated)” value ([2]; 2 mg/ml in reagent, irradiated (30 kGy) as well as unirradiated, 8 donors, 5 days at room temperature, FIG. 9) was “only half”.
